Data published in patent publication US10695562B2, “Interventional drug delivery system and associated methods” (The University of North Carolina at Chapel Hill, priority 2009, dated 2020).

Tests used:
[1] = Gemcitabine transport in orthotopic xenograft tumors, transport testing system, HPLC; assay type: in vitro ADME; conditions: constant current 20 mA, 20 minutes, tumors 1.25 to 1.5 cm
Description: To assess and optimize the electrical transport parameters in tissue, a transport testing system was built (see FIG. 32A). The transport of gemcitabine, the current standard-of-care therapy for pancreatic cancer, was evaluated in orthotopic xenograft tumors using this transport testing system (see FIG. 32B). The tumors chosen for the studies were 1.25 to 1.5 cm in diameter because of compatibility with the size of the transport cell. The gemcitabine was used according to the current clinical formulation (Gemzar® to Eli Lilly and Company), at a concentration relevant to that administered in the clinic. For three tumors, a constant current of 20 mA was applied for 20 minutes, and the amount of gemcitabine was evaluated using a high-performance liquid chromatography (HPLC) analysis method. For three additional tumors, no current was applied, which allowed for passive diffusion of the gemcitabine into the tumor, and the amount of gemcitabine was evaluated using the same HPLC analysis method.

[2] = Plasma concentrations of gemcitabine, implantable device on canine pancreas, UV-HPLC; assay type: in vivo; parameters: key to Gem Concentration (plasma): *: Below limit of detection
Description: The reservoir based system similar to that shown in FIGS. 33A-D was surgically implanted onto the pancreas of a canine. All animal models were anesthetized and attached to a respirator for the entirety of the study. The implantable device approach was assessed via a laparotomy. The pancreas was assessed for ease of access.
There were three arms for the large animal experiment: 1. Device with current; 2. Device without current; and 3. IV Infusion (see Table 2). The device was sutured onto the right lobe of the canine pancreas. Gemcitabine formulated at clinically relevant concentrations was pumped into and out of the device at ˜1.5 mL/min during the application of 10 mA of current applied for 60 minutes. Control experiments were run without current. After administration of therapy, the pancreas was excised and snap frozen for analysis. The gemcitabine was measured from the section tissue using UV-HPLC from established protocols in the literature (see Olive, K P, et al. Science 324 (2009) 1457-1461 and Kirstein M N, et al., J Chromatogr B Analyt Technol Biomed Life Sci. 835 (2006) 136-142). Shown in FIG. 34 are the results obtained from the three experimental arms analyzing the mass of gemcitabine from the entire pancreas.
In FIG. 35, the transport distance of the gemcitabine is shown for the with and without current arms. […] Plasma concentrations of gemcitabine were detected at 15-minute increments prior to and during the large animal study. The tissue was sectioned using a cryostat microtome and gemcitabine was extracted using an established extraction method (see Olive et al.). The gemcitabine was detected and quantified using UV-HPLC (see Olive et al. and Kirstein et al.).

Nc1ccn([C@@H]2O[C@H](CO)[C@@H](O)C2(F)F)c(=O)n1 [Gemcitabine, gemcitabine]
increase in the amount of gemcitabine within tumor compared to the control (no current applied) [1]: eight-fold increase | Gem Concentration (plasma) ([2]; Device - Current Applied (10 mA), sample 0 min): * | Gem Concentration (plasma) ([2]; Device - Current Applied (10 mA), sample 15 min): * | Gem Concentration (plasma) ([2]; Device - Current Applied (10 mA), sample 30 min): * | Gem Concentration (plasma) ([2]; Device - Current Applied (10 mA), sample 45 min): * | Gem Concentration (plasma) ([2]; Device - Current Applied (10 mA), sample 60 min): * | Gem Concentration (plasma) ([2]; Device - Current Applied (10 mA), sample −15 min): * | Gem Concentration (plasma) ([2]; Device - No Current, sample 0 min): * | Gem Concentration (plasma) ([2]; Device - No Current, sample 15 min): * | Gem Concentration (plasma) ([2]; Device - No Current, sample 30 min): * | Gem Concentration (plasma) ([2]; Device - No Current, sample 45 min): * | Gem Concentration (plasma) ([2]; Device - No Current, sample 60 min): * | Gem Concentration (plasma) ([2]; Device - No Current, sample −15 min): * | gemcitabine levels detected in the plasma of the dogs ([2]; with and without current arms, device on pancreas): below the detectable limit
